According to patent US20220105051A1, “COMPOUNDS FOR INCREASING MHC-I EXPRESSION AND MODULATING HISTONE DEACETYLASE ACTIVITY” (Cava Healthcare Inc., priority 2019, published 2022):
“Also recorded” adds a separate entry of the source.

Key:
[1] = system: MHC-I; assay: MHC-I surface expression by flow cytometry; format: cell-based, murine; details: for induction of MHC-I expression at the cell surface: 48 hours after treatment, flow cytometry; for MHC class I upregulation: relative to DMSO
Protocol: (§1) A9 and TC-1 cell lines were trypsinized (0.05%, Gibco), washed twice with PBS (Gibco), and stained with allophycocyanin (APC) conjugated anti-mouse H-2K^b antibody (1:200, Biolegend) suspended in 150 μL of FACS buffer (PBS+2% FBS) for 20 minutes at 4° C. Cells were washed twice with PBS and re-suspended in 200 μL FACs buffer containing 1 μL of 7-aminoactinomycin (7AAD) viability stain (Biolegend). Flow cytometry was performed on the LSRII (BDBiosciences) and analysis was done using FlowJo (Flow cytometry Analysis Software).
(§2) The marine extract library was provided by Dr. Raymond J. Andersen (UBC). The marine invertebrate specimens were collected by SCUBA diving at a 40 metre depth from regions of high marine biodiversity in Papua New Guinea, Indonesia, Thailand, Sri Lanka, Dominica, Brazil, British Columbia, South Africa, and Norway 35. Previously curcuphenol was identified as the active component in one of the marine extracts showing induction of the APM, and since then two new generations of curcuphenol analogues were synthesized in the lab of Dr. Raymond Anderson. To evaluate the ability of these compounds to induce MHC-I surface expression, A9 cells were plated in 6 well plates at 10^5 cells/well and incubated for 24 hours at 37° C. in a 5% CO2 humidified atmosphere. After 24 hours the medium was removed and replaced with medium containing varying concentration of synthesized compounds (6.7 μg/mL, 20 μg/mL, 60 μg/mL). […] Following treatment, cells were incubated for 48 hours at 37° C. with 5% CO2 and humidified atmosphere. After incubation cells were subjected to flow cytometry.
Evaluation of MHC-I surface expression by flow cytometry. LMD:TAP-1 cells or A9 cells were plated in 6 well plates at a concentration of 10,000 cells per well in a 2 mL volume. The next day, cells were treated with the indicated concentrations of the compounds and incubated for 48 hours at 37° C. After incubation, the cells were trypsinized, washed and stained with APC-conjugated anti-mouse MHC-I (specifically anti-H-2K^b) antibody (Biolegend) and assessed by flow cytometry analysis.

[2] = system: A9 cell line; assay: Cytotoxicity / live cell frequency in A9 cells (flow cytometry, 7AAD); format: cell-based, murine; details: for cytotoxicity: 48 hours after treatment
Protocol: as §1, §2

[3] = target: T1, HDAC5 (Homo sapiens, UniProt Q9UQL6); assay: Individualized HDAC assay, HDAC5; format: biochemical; details: purified enzyme, 5 to 0.02 μM
T1 construct: purchased BPS Biosciences
Protocol: (§3) The activity of the curcuphenol analogues was assessed with purified HDAC enzymes from all classes I, II, and IV, as well as a select member of HDAC class III (SIRT1). HDACs 1-9 and SIRT1 were evaluated using HDAC Fluorogenic Assay Kits (BPS Biosciences). All assays were completed in black-sided clear-bottom 96 well plates (PerkinElmer), and all treatments were plated in triplicates. Treatment started at 5 μM and was two-fold diluted to a concentration 0.02 μM. The assays were measured using the Synergy HI hybrid reader (BioTek) and Gen5 software (BioTek), excitation was set to 360 nm and detection was measured at 450 nm with a gain of 100. Alternatively HDAC 10 and 11 (BPS Biosciences) were optimized for HDAC concentration using the HDAC-Glo™ I/II Assay and Screening System (Promega). Following optimization each HDAC was run following the Promega protocol in black-sided clear-bottomed 96 well plates in triplicates with same treatments listed above (PerkinElmer). Luminescence was read 30 minutes after HDAC-Glo™I/II reagent was added using the Synergy HI hybrid reader (BioTek) and Gen5 software (Bio-Tek). […] To calculate percent activity, the average of blank wells was subtracted from all treatment groups. The relative mean of activity of the HDAC being measured was determined and all wells that received treatment were divided this average, to give a percentage of activity.
(§4) To evaluate the effect of the compounds on specific HDACs, their activity was assessed with purified HDAC enzymes from all classes I, II, and IV, as well as a select member of HDAC class III (SIRT1). HDACs 1-9 and SIRT1 were evaluated using HDAC Fluorogenic Assay Kits (BPS Biosciences) following the manufacturer's recommendations. Compound treatment started at 5 μM and was two-fold diluted to a concentration 0.02 μM. Alternatively, HDAC 10 and 11 assays (BPS Biosciences) were optimized to be used with the HDAC-Glo™ I/II Assay and Screening System (Promega). The assays were measured using the Synergy HI hybrid reader (BioTek) and Gen5 software (Bio-Tek). […] To calculate the fold change in HDAC activity, the values from each treated well were divided by the relative mean of activity of the specific HDAC being measured.

[4] = target: T2, HDAC10 (Homo sapiens, UniProt Q969S8); assay: Individualized HDAC assay, HDAC10 (HDAC-Glo); format: biochemical; details: purified enzyme; for HDAC10 activity: 5 to 0.02 μM
T2 construct: purchased BPS Biosciences
T2 sequence (Q969S8 1-669): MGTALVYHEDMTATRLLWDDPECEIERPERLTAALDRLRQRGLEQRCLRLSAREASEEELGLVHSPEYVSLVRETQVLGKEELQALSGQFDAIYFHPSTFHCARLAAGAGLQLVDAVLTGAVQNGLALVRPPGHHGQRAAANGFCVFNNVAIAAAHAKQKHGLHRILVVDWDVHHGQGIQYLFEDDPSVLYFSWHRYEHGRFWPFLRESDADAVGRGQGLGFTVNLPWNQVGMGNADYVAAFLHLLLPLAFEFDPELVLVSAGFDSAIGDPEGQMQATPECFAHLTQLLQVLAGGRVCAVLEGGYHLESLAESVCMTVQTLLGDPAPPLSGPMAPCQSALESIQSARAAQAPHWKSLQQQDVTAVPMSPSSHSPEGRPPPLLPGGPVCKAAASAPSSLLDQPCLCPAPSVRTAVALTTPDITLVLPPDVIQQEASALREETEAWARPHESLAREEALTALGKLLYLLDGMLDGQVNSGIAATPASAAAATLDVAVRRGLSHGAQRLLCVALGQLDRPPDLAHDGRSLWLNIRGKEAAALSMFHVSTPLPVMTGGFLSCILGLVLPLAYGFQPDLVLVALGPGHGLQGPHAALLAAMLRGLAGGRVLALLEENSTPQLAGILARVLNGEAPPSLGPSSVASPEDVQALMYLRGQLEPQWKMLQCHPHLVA
Protocol: as §3, §4

T1 sequence (Q9UQL6 whole entry): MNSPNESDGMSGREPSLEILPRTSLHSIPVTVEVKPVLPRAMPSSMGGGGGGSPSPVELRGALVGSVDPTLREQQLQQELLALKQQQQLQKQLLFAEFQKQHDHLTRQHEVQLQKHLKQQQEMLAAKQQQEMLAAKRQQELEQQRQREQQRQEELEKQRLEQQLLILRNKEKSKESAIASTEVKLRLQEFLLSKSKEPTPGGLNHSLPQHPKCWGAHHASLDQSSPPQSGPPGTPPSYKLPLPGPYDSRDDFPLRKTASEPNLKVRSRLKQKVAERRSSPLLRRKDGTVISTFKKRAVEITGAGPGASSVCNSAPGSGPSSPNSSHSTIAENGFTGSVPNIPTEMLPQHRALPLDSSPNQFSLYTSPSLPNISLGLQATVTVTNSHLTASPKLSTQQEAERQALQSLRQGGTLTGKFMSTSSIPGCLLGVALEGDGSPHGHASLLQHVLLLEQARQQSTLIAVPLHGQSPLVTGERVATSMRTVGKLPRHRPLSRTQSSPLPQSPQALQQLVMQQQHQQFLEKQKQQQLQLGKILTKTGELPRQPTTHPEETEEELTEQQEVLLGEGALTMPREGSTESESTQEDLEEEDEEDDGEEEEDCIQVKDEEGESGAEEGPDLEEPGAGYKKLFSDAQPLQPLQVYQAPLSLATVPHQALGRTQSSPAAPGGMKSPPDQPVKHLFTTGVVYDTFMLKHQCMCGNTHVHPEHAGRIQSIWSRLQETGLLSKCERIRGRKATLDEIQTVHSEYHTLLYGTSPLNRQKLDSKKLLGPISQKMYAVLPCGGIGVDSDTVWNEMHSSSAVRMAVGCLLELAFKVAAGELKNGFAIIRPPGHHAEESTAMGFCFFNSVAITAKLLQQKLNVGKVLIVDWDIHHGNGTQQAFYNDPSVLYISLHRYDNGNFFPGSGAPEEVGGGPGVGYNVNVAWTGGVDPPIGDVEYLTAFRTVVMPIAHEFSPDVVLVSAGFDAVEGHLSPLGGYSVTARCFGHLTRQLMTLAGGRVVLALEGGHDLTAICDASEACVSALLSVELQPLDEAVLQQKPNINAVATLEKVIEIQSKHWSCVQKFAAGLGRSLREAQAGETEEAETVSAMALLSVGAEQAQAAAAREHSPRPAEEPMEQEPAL

SMILES | concentration of optimum MHC upregulation and live cell frequency ([1]; A9 cells, 48 hours) | induction of MHC-I expression at the cell surface ([1]; A9 cells) | MHC class I upregulation ([1]; A9 cells, 48 hours, 0.032, 0.064 and 0.128 μmol) | MHC class I upregulation ([1]; A9 cells, 48 hours, 0.055, 0.064 and 0.071 umol) | surface MHC I molecules ([1]; cancer cell lines in vitro) | cytotoxicity [2] | live cell frequency ([2]; 48 hours, 0.128 μmol) | HDAC5 activity [3] | HDAC10 activity [4] | HDAC5 activity ([3]; listed as PO-3-97-1) | concentration range of HDAC10 enhancement [4] | HDAC10 activity ([4]; listed as PO-3-97-1)
CC(C)=CCC[C@H](C)c1ccc(C)cc1O [Curcuphenol, curcuphenol] | 0.064 µmol | enhances the expression of MHC-I | upregulated | upregulated | significantly increased | low cellular toxicity | drops substantially | activates | activates |  |  | 
COc1ccc(C(C)CCC=C(C)C)c(O)c1 (stereo not drawn) [P03-97-1] |  | strong induction of MHC-I; also recorded: greatest consistent induction of MHC-I expression; also recorded: highest expression of MHC-I |  |  |  | low cytotoxicity; also recorded: lowest cytotoxicity |  | enhanced; also recorded: increase in activity levels | enhanced; also recorded: increase in activity levels | enhanced | enhanced at all concentrations tested | enhanced
CC(C)=CCCCc1ccc(C)cc1O [P02-113] |  | strong induction of MHC-I; also recorded: greatest consistent induction of MHC-I expression; also recorded: highest expression of MHC-I |  |  |  | low cytotoxicity; also recorded: lowest cytotoxicity |  | enhanced; also recorded: increase in activity levels | enhanced; also recorded: increase in activity levels |  | enhanced at all concentrations tested | 
